Measurements from patent US9434756B2, “Crystalline 4′-epidaunorubicin hydrochloride and use thereof” (Heraeus Precious Metals GmbH & Co. KG, priority 2009, dated 2016).

Tests used:
[1] = Solubility of 4′-epidaunorubicin hydrochloride (stated in words, no method given); type: physicochemical
[2] = Thermal stability / decomposition of 4′-epidaunorubicin hydrochloride crystals (thermogravimetric analysis); type: physicochemical; settings: for temperature at which the product decomposed: crystals obtained in the example
Source text: FIG. 2 is a graph showing the thermogravimetric analysis (TGA) of 4′-epidaunorubicin hydrochloride. The data were obtained using the instrument NETZSCH TG 209 (sample mass: […], range: 24.0/10.0 (K/min)/250.0, crucible: Al2O3).

## COc1cccc2c1C(=O)c1c(O)c3c(c(O)c1C2=O)C[C@@](O)(C(C)=O)C[C@@H]3O[C@H]1C[C@H](N)[C@@H](O)[C@H](C)O1.Cl [4′-epidaunorubicin hydrochloride]
[1]; amorphous precipitate, solvent not stated
  solubility of amorphously precipitated material: only purely soluble
[1]; methanol, crystalline form versus amorphous form, hydrochloride
  solubility in methanol: improved solubility in methanol
[2]; crystalline form
  thermal stability: high thermal stability
[2]; listed as Example 1, hydrochloride
  temperature at which the product decomposed: 191 °C
[2]; listed as Example 2, hydrochloride
  temperature at which the product decomposed: 191 °C
[2]; listed as Example 3, hydrochloride
  temperature at which the product decomposed: 190 °C
[2]; listed as Example 4, hydrochloride
  temperature at which the product decomposed: 190 °C
